In PubChem BioAssay (NCI):
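48-hour exposure; five concentrations; linearly interpolated endpoints. TGI is the concentration that stops growth completely.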

Legend:
Experiment in all cases: NCI-60 cell line screen, 48 h
786-0 renal = system: 786-0 renal
A498 renal = system: A498 renal
A549 NSCLC = system: A549 NSCLC
ACHN renal = system: ACHN renal
BT-549 breast = system: BT-549 breast
CAKI-1 renal = system: CAKI-1 renal
COLO 205 colon = system: COLO 205 colon
DU-145 prostate = system: DU-145 prostate
EKVX NSCLC = system: EKVX NSCLC
HCC-2998 colon = system: HCC-2998 colon
HCT-116 colon = system: HCT-116 colon
HCT-15 colon = system: HCT-15 colon
HOP-62 NSCLC = system: HOP-62 NSCLC
HS 578T breast = system: HS 578T breast
HT29 colon = system: HT29 colon
IGROV1 ovarian = system: IGROV1 ovarian
K-562 leukemia = system: K-562 leukemia
KM12 colon = system: KM12 colon
LOX IMVI melanoma = system: LOX IMVI melanoma
M14 melanoma = system: M14 melanoma
MALME-3M melanoma = system: MALME-3M melanoma
MCF7 breast = system: MCF7 breast
MDA-MB-231 breast = system: MDA-MB-231 breast
MDA-MB-435 = system: MDA-MB-435
MDA-N = system: MDA-N
MOLT-4 leukemia = system: MOLT-4 leukemia
NCI-H226 lung = system: NCI-H226 lung
NCI-H23 lung = system: NCI-H23 lung
NCI-H460 lung = system: NCI-H460 lung
NCI-H522 lung = system: NCI-H522 lung
NCI/ADR-RES ovarian = system: NCI/ADR-RES ovarian
OVCAR-3 ovarian = system: OVCAR-3 ovarian
OVCAR-4 ovarian = system: OVCAR-4 ovarian
OVCAR-5 ovarian = system: OVCAR-5 ovarian
OVCAR-8 ovarian = system: OVCAR-8 ovarian
PC-3 prostate = system: PC-3 prostate
RPMI-8226 leukemia = system: RPMI-8226 leukemia
RXF 393 renal = system: RXF 393 renal
SF-268 CNS = system: SF-268 CNS
SF-295 CNS = system: SF-295 CNS
SK-MEL-2 melanoma = system: SK-MEL-2 melanoma
SK-MEL-28 melanoma = system: SK-MEL-28 melanoma
SK-MEL-5 melanoma = system: SK-MEL-5 melanoma
SK-OV-3 ovarian = system: SK-OV-3 ovarian
SN12C renal = system: SN12C renal
SNB-19 CNS = system: SNB-19 CNS
SNB-75 CNS = system: SNB-75 CNS
SW-620 colon = system: SW-620 colon
T-47D breast = system: T-47D breast
TK-10 renal = system: TK-10 renal
U251 CNS = system: U251 CNS
UACC-257 melanoma = system: UACC-257 melanoma
UACC-62 melanoma = system: UACC-62 melanoma
UO-31 renal = system: UO-31 renal
CCRF-CEM leukemia = system: CCRF-CEM leukemia
HOP-92 NSCLC = system: HOP-92 NSCLC
SR leukemia = system: SR leukemia

Clc1nc(NCCc2ccccc2)c2ncn(-c3ccccc3)c2n1
TGI (786-0 renal): 31.4 µM | TGI (A498 renal): 41.9 µM | TGI (A549 NSCLC): > 100 µM | TGI (ACHN renal): 92.7 µM | TGI (BT-549 breast): 60 µM | TGI (CAKI-1 renal): 34 µM | TGI (COLO 205 colon): 50.6 µM | TGI (DU-145 prostate): 83.4 µM | TGI (EKVX NSCLC): 68.3 µM | TGI (HCC-2998 colon): 45.5 µM | TGI (HCT-116 colon): 56.4 µM | TGI (HCT-15 colon): > 100 µM | TGI (HOP-62 NSCLC): 67.2 µM | TGI (HS 578T breast): 76.7 µM | TGI (HT29 colon): 34.2 µM | TGI (IGROV1 ovarian): > 100 µM | TGI (K-562 leukemia): 70.5 µM | TGI (KM12 colon): 51.3 µM | TGI (LOX IMVI melanoma): 43.1 µM | TGI (M14 melanoma): 49.7 µM | TGI (MALME-3M melanoma): 52.4 µM | TGI (MCF7 breast): 60.8 µM | TGI (MDA-MB-231 breast): 62.8 µM | TGI (MDA-MB-435): 35.1 µM | TGI (MDA-N): 40.2 µM | TGI (MOLT-4 leukemia): 51 µM | TGI (NCI-H226 lung): 58.9 µM | TGI (NCI-H23 lung): 77.3 µM | TGI (NCI-H460 lung): 33.7 µM | TGI (NCI-H522 lung): 56.4 µM | TGI (NCI/ADR-RES ovarian): 57.9 µM | TGI (OVCAR-3 ovarian): 82.2 µM | TGI (OVCAR-4 ovarian): 42.1 µM | TGI (OVCAR-5 ovarian): > 100 µM | TGI (OVCAR-8 ovarian): 90.6 µM | TGI (PC-3 prostate): 47.8 µM | TGI (RPMI-8226 leukemia): 47.3 µM | TGI (RXF 393 renal): > 100 µM | TGI (SF-268 CNS): > 100 µM | TGI (SF-295 CNS): > 100 µM | TGI (SK-MEL-2 melanoma): 19.9 µM | TGI (SK-MEL-28 melanoma): 94.1 µM | TGI (SK-MEL-5 melanoma): 32.5 µM | TGI (SK-OV-3 ovarian): 60.7 µM | TGI (SN12C renal): 85.4 µM | TGI (SNB-19 CNS): > 100 µM | TGI (SNB-75 CNS): 90.4 µM | TGI (SW-620 colon): > 100 µM | TGI (T-47D breast): 98.2 µM | TGI (TK-10 renal): 71.2 µM | TGI (U251 CNS): 48.6 µM | TGI (UACC-257 melanoma): 34.6 µM | TGI (UACC-62 melanoma): 56.7 µM | TGI (UO-31 renal): 43.1 µM

O=S(=O)(O)c1ccc2c(N=Nc3ccc(F)cc3)c(O)c(S(=O)(=O)O)cc2c1
TGI (786-0 renal): > 100 µM | TGI (A498 renal): > 100 µM | TGI (A549 NSCLC): > 100 µM | TGI (ACHN renal): > 100 µM | TGI (BT-549 breast): > 100 µM | TGI (CAKI-1 renal): > 100 µM | TGI (CCRF-CEM leukemia): > 100 µM | TGI (COLO 205 colon): > 100 µM | TGI (DU-145 prostate): > 100 µM | TGI (EKVX NSCLC): > 100 µM | TGI (HCT-116 colon): > 100 µM | TGI (HCT-15 colon): > 100 µM | TGI (HOP-62 NSCLC): > 100 µM | TGI (HOP-92 NSCLC): > 100 µM | TGI (HS 578T breast): > 100 µM | TGI (HT29 colon): > 100 µM | TGI (IGROV1 ovarian): > 100 µM | TGI (K-562 leukemia): > 100 µM | TGI (KM12 colon): > 100 µM | TGI (LOX IMVI melanoma): > 100 µM | TGI (M14 melanoma): > 100 µM | TGI (MALME-3M melanoma): > 100 µM | TGI (MDA-MB-231 breast): > 100 µM | TGI (MDA-MB-435): > 100 µM | TGI (MDA-N): > 100 µM | TGI (MOLT-4 leukemia): > 100 µM | TGI (NCI-H23 lung): > 100 µM | TGI (NCI-H522 lung): > 100 µM | TGI (NCI/ADR-RES ovarian): > 100 µM | TGI (OVCAR-3 ovarian): > 100 µM | TGI (OVCAR-4 ovarian): > 100 µM | TGI (OVCAR-5 ovarian): > 100 µM | TGI (OVCAR-8 ovarian): > 100 µM | TGI (PC-3 prostate): > 100 µM | TGI (RPMI-8226 leukemia): > 100 µM | TGI (RXF 393 renal): > 100 µM | TGI (SF-268 CNS): > 100 µM | TGI (SF-295 CNS): > 100 µM | TGI (SK-MEL-2 melanoma): > 100 µM | TGI (SK-MEL-28 melanoma): > 100 µM | TGI (SK-MEL-5 melanoma): > 100 µM | TGI (SK-OV-3 ovarian): > 100 µM | TGI (SN12C renal): > 100 µM | TGI (SNB-19 CNS): > 100 µM | TGI (SNB-75 CNS): > 100 µM | TGI (SR leukemia): > 100 µM | TGI (SW-620 colon): > 100 µM | TGI (T-47D breast): > 100 µM | TGI (TK-10 renal): > 100 µM | TGI (U251 CNS): > 100 µM | TGI (UACC-257 melanoma): > 100 µM | TGI (UACC-62 melanoma): > 100 µM | TGI (UO-31 renal): > 100 µM
